Values quoted from earlier work as cited in EP0893690B1, “Detection of mycotoxins by flow-through membrane-based enzyme immunoassay” (priority 1997, dated 1999).

What was measured:
[1] = target: monoclonal anti-OA antibody (IgG1 with kappa light chains); details: association constant of the anti-OA antibody for its antigen OA; read-out: affinity constant (converted)
[2] = tested on: monoclonal anti-OA antibody (IgG1 with kappa light chains); details: relative to OA; called weak

| Compound | Kd [1] [pM] | cross-reaction [2] [%] |
| --- | --- | --- |
| C[C@@H]1Cc2c(Cl)cc(C(=O)N[C@@H](Cc3ccccc3)C(=O)O)c(O)c2C(=O)O1 [OA, ochratoxin A] | 128 | – |
| C[C@@H]1Cc2ccc(C(=O)N[C@@H](Cc3ccccc3)C(=O)O)c(O)c2C(=O)O1 [ochratoxin B] | – | 9.3 |
